Test results reported in paper PMC9603181, “RNA-Dependent RNA Polymerase of the Second Human Pegivirus Exhibits a High-Fidelity Feature” (Microbiology Spectrum, 2022).

What was measured:
Type in all cases: biochemical
[1] = biological target: T1, HPgV-2 NS5B (HPgV-2 RdRp) (Human hepegivirus, UniProt A0A2L0ARU6); test: two-step single-nucleotide-incorporation assay, time course, urea-PAGE, Stain-All; conditions: T30/pGG, CTP 500 uM as only step 2 substrate, Mg2+/Mn2+, pH 6.5, 30 C
T1 construct: NS5B residues 1-551 (QSYN to GASR) of the genome polyprotein, C-terminal truncation, C-terminal His6 tag kept, pET-26b, E. coli BL21(DE3)

HCV NS5B (HCV RdRp) [2] = biological target: T2, HCV NS5B (HCV RdRp) (Orthohepacivirus hominis, UniProt A0A140D8J5); test: as above; conditions: T30/pGG, CTP 500 uM as only step 2 substrate, no Mn2+, pH 6.5, 30 C
T2 construct: NS5B residues 1-570 (SMSY to ARFR) of the genome polyprotein, C-terminal truncation, C-terminal His6 tag kept, pET-26b, E. coli BL21(DE3)

HCV NS5B (HCV RdRp) [3] = biological target: T2, HCV NS5B (HCV RdRp); test: two-step single-nucleotide-incorporation assay, urea-PAGE, Stain-All; conditions: T32 RNA template, pGG primer, pH 6.5, 30 C; sof-TP dose response from 50 uM; UTP analogue, chain terminator

`Nc1ccn([C@@H]2O[C@H](COP(=O)(O)OP(=O)(O)OP(=O)(O)O)[C@@H](O)[C@H]2O)c(=O)n1` [CTP] was tested, and the “two-step single-nucleotide-incorporation assay, time course, urea-PAGE, Stain-Al” value [1] was “no significant difference in the synthesis of the correct P10 between HCV and HPgV-2 NS5B” and the “two-step single-nucleotide-incorporation assay, time course, urea-PAGE, Stain-Al” value (HCV NS5B (HCV RdRp) [2]) was “no significant difference in the synthesis of the correct P10 between HCV and HPgV-2 NS5B”.
With `C[C@@]1(F)[C@H](O)[C@@H](COP(=O)(O)OP(=O)(O)OP(=O)(O)O)O[C@H]1n1ccc(=O)[nH]c1=O` [PSI-7409] the “two-step single-nucleotide-incorporation assay, urea-PAGE, Stain-All” value (HCV NS5B (HCV RdRp) [3]) was “a clear P9S band was observed in the presence of HCV NS5B”.
